Data reported in patent publication US12552804B2, “Tricyclic heterocycles as FGFR inhibitors” (Incyte Corporation, priority 2019, dated 2026).
pKi: −log10 of the molar value.

Target: wild-type un-phosphorylated FGFR3 protein (Homo sapiens, UniProt P22607)
Assay: FGFR Enzymatic Assay (FRET detection of peptide phosphorylation)
Type: biochemical
Conditions: pre-incubated for 4 hours, read-out: FGFR3_Ki
Protocol: The inhibitor potency of the exemplified compounds was determined in an enzyme discontinuous assay that measures peptide phosphorylation using FRET measurements to detect product formation. Inhibitors were serially diluted in DMSO and a volume of 0.2 μL was transferred to the wells of a 384-well plate. A 5 μL/well volume of enzyme isoforms of FGFR (−1, −2, −3 wild-type and mutant isoforms, −4) including phosphorylated and un-phosphorylated proteins diluted in assay buffer (50 mM HEPES, 10 mM MgCl2, 1 mM EGTA, 0.01% Tween-20, 5 mM DTT, pH 7.5) was added to the plate and pre-incubated with inhibitor for 5 to 15 minutes at ambient temperature. Appropriate controls (enzyme blank and enzyme with no inhibitor) were included on the plate. […] The ATP Km values were pre-determined in a separate series of experiments. The reaction plate was incubated at 25° C. for 1 hr and the reactions were ended with the addition of 5 μL/well of quench solution (50 mM Tris, 150 mM NaCl, 0.5 mg/mL BSA, pH 7.8; 45 mM EDTA, 600 nM staurosporin, with Perkin Elmer Lance Reagents at 3.75 nM Eu-antibody PY20 and 180 nM APC-Streptavidin). The plate was allowed to equilibrate for ˜10 minutes at ambient temperature before scanning on a PheraStar plate reader (BMG Labtech) instrument.
Either GraphPad prism or XLfit was used to analyze the data. The IC50 values were derived by fitting the data to a four parameter logistic equation producing a sigmoidal dose-response curve with a variable Hill coefficient. Prism equation: Y=Bottom+(Top−Bottom)/(1+10^((LogIC50−X)*Hill slope)); XLfit equation: Y=(A+((B−A)/(1+((X/C)^D)))) where X is the logarithm of inhibitor concentration and Y is the response.
The data in Table 1 was measured in wild-type un-phosphorylated FGFR3 protein.

wild-type un-phosphorylated FGFR3 protein, sequence (P22607 23-806): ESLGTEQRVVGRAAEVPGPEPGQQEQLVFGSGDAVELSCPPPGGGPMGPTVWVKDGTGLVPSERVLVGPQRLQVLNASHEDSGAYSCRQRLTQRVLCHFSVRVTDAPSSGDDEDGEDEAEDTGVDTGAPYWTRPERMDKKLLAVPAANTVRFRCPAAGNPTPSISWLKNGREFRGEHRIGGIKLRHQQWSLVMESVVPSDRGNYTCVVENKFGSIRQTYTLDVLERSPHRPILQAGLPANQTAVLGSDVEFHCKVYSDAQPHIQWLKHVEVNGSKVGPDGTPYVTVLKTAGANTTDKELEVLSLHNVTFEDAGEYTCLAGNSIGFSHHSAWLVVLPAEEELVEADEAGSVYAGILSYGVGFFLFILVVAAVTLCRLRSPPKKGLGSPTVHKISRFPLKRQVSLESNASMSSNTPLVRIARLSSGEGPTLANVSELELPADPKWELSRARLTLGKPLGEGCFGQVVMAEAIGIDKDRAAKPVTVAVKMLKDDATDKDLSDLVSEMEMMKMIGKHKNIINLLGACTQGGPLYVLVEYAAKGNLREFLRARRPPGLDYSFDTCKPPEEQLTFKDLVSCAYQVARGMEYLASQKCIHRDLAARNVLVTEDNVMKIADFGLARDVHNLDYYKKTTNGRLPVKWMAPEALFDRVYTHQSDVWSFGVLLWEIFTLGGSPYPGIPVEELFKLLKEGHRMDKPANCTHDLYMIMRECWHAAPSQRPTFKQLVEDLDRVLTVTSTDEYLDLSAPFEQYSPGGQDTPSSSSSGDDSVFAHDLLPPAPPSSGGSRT

Compound	pKi
Cc1c(-c2ccccc2Cl)nc2c3cc(-c4cnn(C)c4)cnc3ccn12 [Example 1, 2-(2-Chlorophenyl)-3-methyl-9-(1-methyl-1H-pyrazol-4-yl)imidazo[2,1-f][1,6]naphthyridine]	7.00 to 8.00
Cn1cc(-c2cnc3ccn4c(C5=CCCC5)c(-c5ccccc5Cl)nc4c3c2)cn1 [Example 2, 2-(2-Chlorophenyl)-3-(cyclopent-1-en-1-yl)-9-(1-methyl-1H-pyrazol-4-yl)imidazo[2,1-f][1,6]naphthyridine]	6.40 to 7.00
C/C=C/c1c(-c2ccccc2Cl)nc2c3cc(-c4cnn(C)c4)cnc3ccn12 [Example 3, (E)-2-(2-Chlorophenyl)-9-(1-methyl-1H-pyrazol-4-yl)-3-(prop-1-en-1-yl)imidazo[2,1-f][1,6]naphthyridine]	7.00 to 8.00
COc1cc(OC)cc(-c2c(-c3ccccc3Cl)nc3c4cc(-c5cnn(C)c5)cnc4ccn23)c1 [Example 4, 2-(2-Chlorophenyl)-3-(3,5-dimethoxyphenyl)-9-(1-methyl-1H-pyrazol-4-yl)imidazo[2,1-f][1,6]naphthyridine]	> 8.00
Cn1cc(-c2cnc3ccn4c(-c5cnn(C)c5)c(-c5ccccc5Cl)nc4c3c2)cn1 [Example 5, 2-(2-Chlorophenyl)-3,9-bis(1-methyl-1H-pyrazol-4-yl)imidazo[2,1-f][1,6]naphthyridine]	6.40 to 7.00
Cn1cc(-c2cnc3ccn4c(-c5ccco5)c(-c5ccccc5Cl)nc4c3c2)cn1 [Example 6, 2-(2-Chlorophenyl)-3-(furan-2-yl)-9-(1-methyl-1H-pyrazol-4-yl)imidazo[2,1-f][1,6]naphthyridine]	7.00 to 8.00
Cn1cc(-c2cnc3ccn4c(C#N)c(-c5ccccc5Cl)nc4c3c2)cn1 [Example 7, 2-(2-Chlorophenyl)-9-(1-methyl-1H-pyrazol-4-yl)imidazo[2,1-f][1,6]naphthyridine-3-carbonitrile]	6.40 to 7.00
Cn1cc(-c2cnc3ccn4c(C5CC5)c(-c5ccccc5Cl)nc4c3c2)cn1 [Example 8, 2-(2-Chlorophenyl)-3-cyclopropyl-9-(1-methyl-1H-pyrazol-4-yl)imidazo[2,1-f][1,6]naphthyridine]	> 8.00
CCc1c(-c2ccccc2Cl)nc2c3cc(-c4cnn(C)c4)cnc3ccn12 [Example 9, 2-(2-Chlorophenyl)-3-ethyl-9-(1-methyl-1H-pyrazol-4-yl)imidazo[2,1-f][1,6]naphthyridine]	7.00 to 8.00
Cn1cc(-c2cnc3ccn4c(Cl)c(-c5ccccc5Cl)nc4c3c2)cn1 [Example 10, 3-Chloro-2-(2-chlorophenyl)-9-(1-methyl-1H-pyrazol-4-yl)imidazo[2,1-f][1,6]naphthyridine]	7.00 to 8.00
Cn1cc(-c2cnc3ccn4cc(-c5c(F)cccc5F)nc4c3c2)cn1 [Example 11, 2-(2,6-Difluorophenyl)-9-(1-methyl-1H-pyrazol-4-yl)imidazo[2,1-f][1,6]naphthyridine]	7.00 to 8.00
Cc1nn(C)cc1-c1cnc2ccn3cc(-c4c(F)cccc4Cl)nc3c2c1 [Example 12, 2-(2-Chloro-6-fluorophenyl)-9-(1,3-dimethyl-1H-pyrazol-4-yl)imidazo[2,1-f][1,6]naphthyridine]	7.00 to 8.00
Cn1cc(-c2cnc3ccn4c(C5CC5)c(-c5ccccc5Cl)nc4c3n2)cn1 [Example 13, 9-(2-Chlorophenyl)-8-cyclopropyl-2-(1-methyl-1H-pyrazol-4-yl)imidazo[1′,2′:1,2]pyrido[3,4-b]pyrazine]	> 8.00
Cn1cc(-c2cnc3ccn4cc(-c5c(F)cccc5Cl)nc4c3n2)cn1 [Example 14, 9-(2-Chloro-6-fluorophenyl)-2-(1-methyl-1H-pyrazol-4-yl)imidazo[1′,2′:1,2]pyrido[3,4-b]pyrazine]	7.00 to 8.00
CC(=O)N1CCC(n2cc(-c3cnc4ccn5cc(-c6c(Cl)cccc6Cl)nc5c4c3)cn2)C1 (stereo not drawn) [Example 15, 1-(3-(4-(2-(2,6-Dichlorophenyl)imidazo[2,1-f][1,6]naphthyridin-9-yl)-1H-pyrazol-1-yl)pyrrolidin-1-yl)ethan-1-one]	> 8.00
